Legend:
CK1ε = CK1ε (Homo sapiens (Human), UniProt P49674); experiment: CK1ε kinase assay (Caliper LABCHIP electrophoretic separation of fluoresceinated peptide substrate and product); format: biochemical; conditions: 200 pM enzyme, 50 μM ATP, 22 hours at room temperature
How it was run: (§1)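 IC50 values were obtained by non-linear regression from eleven-concentration titrations. The kinase reactions were incubated for 22 hours at room temperature before termination with 35 mM EDTA.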

CK1δ = CK1δ (Homo sapiens (Human), UniProt P48730); experiment: CK1δ kinase assay (Caliper LABCHIP electrophoretic separation of fluoresceinated peptide substrate and product); format: biochemical; conditions: 200 pM enzyme, 50 μM ATP, 22 hours at room temperature
How it was run: as §1

CK1δ, sequence (P48730 whole entry): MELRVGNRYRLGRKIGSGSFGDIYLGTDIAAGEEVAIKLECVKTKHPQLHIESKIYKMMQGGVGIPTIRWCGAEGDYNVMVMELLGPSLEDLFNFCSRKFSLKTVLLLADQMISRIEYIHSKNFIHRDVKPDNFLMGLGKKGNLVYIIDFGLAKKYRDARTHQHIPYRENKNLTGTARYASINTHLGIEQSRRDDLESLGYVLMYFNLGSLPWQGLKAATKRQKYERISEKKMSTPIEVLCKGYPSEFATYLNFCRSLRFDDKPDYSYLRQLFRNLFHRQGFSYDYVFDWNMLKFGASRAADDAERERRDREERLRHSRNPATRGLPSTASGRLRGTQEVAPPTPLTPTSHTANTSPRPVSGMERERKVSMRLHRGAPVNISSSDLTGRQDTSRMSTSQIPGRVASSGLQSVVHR
CK1ε, sequence (P49674 whole entry): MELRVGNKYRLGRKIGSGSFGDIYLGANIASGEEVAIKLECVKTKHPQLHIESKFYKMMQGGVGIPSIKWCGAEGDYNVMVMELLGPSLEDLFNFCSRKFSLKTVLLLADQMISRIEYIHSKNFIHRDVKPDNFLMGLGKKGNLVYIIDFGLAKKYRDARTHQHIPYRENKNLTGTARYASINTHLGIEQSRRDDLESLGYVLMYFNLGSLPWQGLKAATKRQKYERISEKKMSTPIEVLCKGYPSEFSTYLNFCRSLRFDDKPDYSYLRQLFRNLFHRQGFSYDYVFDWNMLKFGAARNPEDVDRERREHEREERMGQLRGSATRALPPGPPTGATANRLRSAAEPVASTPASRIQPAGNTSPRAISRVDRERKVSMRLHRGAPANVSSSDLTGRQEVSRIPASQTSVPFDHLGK

Row | SMILES | IC50 (CK1ε) [nM] | IC50 (CK1δ) [nM]
1 | COC(=O)N1CCC(n2cnc(-c3ccc(F)cc3)c2-c2ccc3nc(NC(=O)c4ccnc(F)c4)cn3n2)CC1 [Compound 84, methyl 4-(5-(2-(2-fluoroisonicotinamido)imidazo[1,2-b]pyridazin-6-yl)-4-(4-fluorophenyl)-1H-imidazol-1-yl)piperidine-1-carboxylate] | 0.967 | 0.179
2 | O=C(Nc1cn2nc(-c3c(-c4ccc(F)cc4)nc(C4CC4)n3C3CCN(Cc4ccon4)CC3)ccc2n1)c1ccnc(F)c1 [Compound 128, N-(6-(2-cyclopropyl-4-(4-fluorophenyl)-1-(1-(isoxazol-3-ylmethyl)piperidin-4-yl)-1H-imidazol-5-yl)imidazo[1,2-b]pyridazin-2-yl)-2-fluoroisonicotinamide] | 6.41 | 0.301
3 | O=C(Nc1cn2nc(-c3c(-c4ccc(F)cc4)ncn3CCN3CCOCC3)ccc2n1)c1ccncc1 [Compound 160, N-(6-(4-(4-fluorophenyl)-1-(2-morpholinoethyl)-1H-imidazol-5-yl)imidazo[1,2-b]pyridazin-2-yl)isonicotinamide] | 3.21 | 0.306
4 | O=C(Nc1cn2nc(-c3c(-c4ccc(F)cc4)nc(C4CC4)n3C3CCNCC3)ccc2n1)c1ccnc(F)c1 [Compound 119, N-(6-(2-cyclopropyl-4-(4-fluorophenyl)-1-(piperidin-4-yl)-1H-imidazol-5-yl)imidazo[1,2-b]pyridazin-2-yl)-2-fluoroisonicotinamide] | 8.27 | 1.21
5 | O=C(Nc1cn2nc(-c3c(-c4ccc(F)cc4)ncn3C3CCN(C(=O)c4ccns4)CC3)ccc2n1)c1ccnc(F)c1 [Compound 73, 2-fluoro-N-(6-(4-(4-fluorophenyl)-1-(1-(isothiazole-5-carbonyl)piperidin-4-yl)-1H-imidazol-5-yl)imidazo[1,2-b]pyridazin-2-yl)isonicotinamide] | 0.608 | 0.354
6 | O=C(Nc1cn2nc(-c3c(-c4ccc(F)cc4)ncn3C3CCN(C(=O)C4CC4(F)F)CC3)ccc2n1)c1ccnc(F)c1 (centres unmarked) [Compound 65, N-(6-(1-(1-(2,2-difluorocyclopropanecarbonyl)piperidin-4-yl)-4-(4-fluorophenyl)-1H-imidazol-5-yl)imidazo[1,2-b]pyridazin-2-yl)-2-fluoroisonicotinamide] | 1.37 | 0.256
7 | O=C(Nc1cn2nc(-c3c(-c4ccc(F)cc4)nc(C4CC4)n3C3CCN(Cc4ccno4)CC3)ccc2n1)c1ccnc(F)c1 [Compound 133, N-(6-(2-cyclopropyl-4-(4-fluorophenyl)-1-(1-(isoxazol-5-ylmethyl)piperidin-4-yl)-1H-imidazol-5-yl)imidazo [1,2-b]pyridazin-2-yl)-2-fluoroisonicotinamide] | 13.1 | 0.907
8 | O=C(Nc1cn2nc(-c3c(-c4ccc(F)cc4)ncn3C3CCN(C[C@@H](O)C(F)(F)F)CC3)ccc2n1)c1ccnc(F)c1 [Compound 37, (R)-2-fluoro-N-(6-(4-(4-fluorophenyl)-1-(1-(3,3,3-trifluoro-2-hydroxypropyl)piperidin-4-yl)-1H-imidazol-5-yl)imidazo[1,2-b]pyridazin-2-yl)isonicotinamide] | 1.27 | 0.296
9 | CC(C)(C)C(=O)Nc1cn2nc(-c3c(-c4ccc(F)cc4)ncn3Cc3ccoc3)ccc2n1 [Compound 279, N-(6-(4-(4-fluorophenyl)-1-(furan-3-ylmethyl)-1H-imidazol-5-yl)imidazo[1,2-b]pyridazin-2-yl)pivalamide] | 0.887 | 0.169
10 | Cn1ccc(C(=O)N2CCC(n3cnc(-c4ccc(F)cc4)c3-c3ccc4nc(NC(=O)c5ccnc(F)c5)cn4n3)CC2)n1 [Compound 60, 2-fluoro-N-(6-(4-(4-fluorophenyl)-1-(1-(1-methyl-1H-pyrazole-3-carbonyl)piperidin-4-yl)-1H-imidazol-5-yl)imidazo[1,2-b]pyridazin-2-yl)isonicotinamide] | 0.545 | 0.213
11 | O=C(Nc1cn2nc(-c3c(-c4ccc(F)cc4)ncn3C3CCN(C(=O)C4(C(F)(F)F)CCC4)CC3)ccc2n1)c1ccnc(F)c1 [Compound 49, 2-fluoro-N-(6-(4-(4-fluorophenyl)-1-(1-(1-(trifluoromethyl)cyclobutanecarbonyl)piperidin-4-yl)-1H-imidazol-5-yl)imidazo[1,2-b]pyridazin-2-yl)isonicotinamide] | 7.33 | 1.06
12 | Cc1nn(C)cc1CN1CCC(n2cnc(-c3ccc(F)cc3)c2-c2ccc3nc(NC(=O)c4ccnc(F)c4)cn3n2)CC1 [Compound 21] | 5.56 | 0.17

Other lines, results leading:

Row | IC50 (CK1ε) [nM] | IC50 (CK1δ) [nM] | SMILES
13 | 8.37 | 1.03 | Cc1nc(-c2ccc(F)cc2)c(-c2ccc3nc(NC(=O)c4cnc5ccccc5n4)cn3n2)n1C [Compound 310, N-(6-(4-(4-fluorophenyl)-1,2-dimethyl-1H-imidazol-5-yl)imidazo[1,2-b]pyridazin-2-yl) quinoxaline-2-carboxamide]
14 | 22.3 | 2.19 | O=C(Cn1ccnc1)Nc1cn2nc(-c3c(-c4ccc(F)cc4)nc4ccccn34)ccc2n1 [Compound 214, N-(6-(2-(4-fluorophenyl)imidazo[1,2-a]pyridin-3-yl)imidazo[1,2-b]pyridazin-2-yl)-2-(1H-imidazol-1-yl) acetamide]
15 | 6.08 | 0.676 | Cc1nc(-c2ccc(F)cc2)c(-c2ccc3nc(NC(=O)c4cc5cnccc5[nH]4)cn3n2)n1C [Compound 327, N-(6-(4-(4-fluorophenyl)-1,2-dimethyl-1H-imidazol-5-yl)imidazo[1,2-b]pyridazin-2-yl)-1H-pyrrolo[3,2-c] pyridine-2-carboxamide]
16 | 2.58 | 0.271 | Cc1nc(-c2ccc(F)cc2)c(-c2ccc3nc(NC(=O)c4ccc5cccnc5c4)cn3n2)n1C [Compound 337, N-(6-(4-(4-fluorophenyl)-1,2-dimethyl-1H-imidazol-5-yl)imidazo[1,2-b]pyridazin-2-yl)-7-quinolinecarboxamide]
17 | 79.2 | 6.4 | O=C(Nc1cn2nc(-c3c(-c4ccc(F)cc4)ncn3-c3ccc(F)cc3)ccc2n1)c1cc(F)nc(F)c1 [Compound 418, N-(6-(1,4-bis(4-Fluorophenyl)-1H-imidazol-5-yl)imidazo[1,2-b]pyridazin-2-yl)-2,6-difluoroisonicotinamide]
18 | 3.3 | 1.3 | O=C(Nc1cn2nc(-c3c(-c4ccc(F)cc4)nc4n3CCC4)ccc2n1)c1ccnc(N2CCOCC2)c1 [Compound 439, N-(6-(2-(4-Fluorophenyl)-6,7-dihydro-5H-pyrrolo[1,2-a]imidazol-3-yl)imidazo[1,2-b]pyridazin-2-yl)-2-morpholinoisonicotinamide]
19 | 103 | 21.9 | Cc1cc(C(=O)Nc2cn3nc(-c4c(-c5ccc(F)cc5)nc(C)n4C)ccc3n2)on1 [Compound 382, N-(6-(4-(4-fluorophenyl)-1,2-dimethyl-1H-imidazol-5-yl)imidazo[1,2-b]pyridazin-2-yl)-3-methyl-5-isoxazole-carboxamide]
20 | 1.28 | 0.111 | CN(C)c1cc(C(=O)Nc2cn3nc(-c4c(-c5ccc(F)cc5)nc5ccccn45)ccc3n2)ccn1 [Compound 193, 2-(dimethylamino)-N-(6-(2-(4-fluorophenyl)imidazo[1,2-a]pyridin-3-yl)imidazo[1,2-b]pyridazin-2-yl) isonicotinamide]
21 | 4.7 | 0.4 | O=C(Nc1cn2nc(-c3c(-c4ccc(F)cc4)nc4n3CCCC4)ccc2n1)c1cc(F)nc(F)c1 [Compound 445, 2,6-Difluoro-N-(6-(2-(4-fluorophenyl)-5,6,7,8-tetrahydroimidazo[1,2-a]pyridin-3-yl)imidazo[1,2-b]pyridazin-2-yl)isonicotinamide]
22 | 2.64 | 0.388 | Cc1nc(-c2ccc(F)c(F)c2)c(-c2ccc3nc(NC(=O)c4ccnc(F)c4)cn3n2)n1CC(F)F [Compound 291, N-(6-(1-(2,2-difluoroethyl)-4-(3,4-difluorophenyl)-2-methyl-1H-imidazol-5-yl)imidazo[1,2-b]pyridazin-2-yl)-2-fluoroiso-nicotinamide]
23 | 74.2 | 4.94 | CC(=O)N1CCCC1C(=O)Nc1cn2nc(-c3c(-c4ccc(F)cc4)nc(C)n3C)ccc2n1 [Compound 353, 1-acetyl-N-(6-(4-(4-fluoro-phenyl)-1,2-dimethyl-1H-imidazol-5-yl)imidazo[1,2-b]pyridazin-2-yl)-L-pro-linamide]
24 | 296 | 12.9 | Cc1nc(-c2ccc(F)cc2)c(-c2ccc3nc(NC(=O)Nc4ccc(C#N)cc4)cn3n2)n1C [Compound 408, 1-(4-cyanophenyl)-3-(6-(4-(4-fluorophenyl)-1,2-dimethyl-1H-imidazol-5-yl)imidazo[1,2-b]pyridazin-2-yl)urea]
25 | 0.654 | 0.847 | CN1CCC(n2cnc(-c3ccc(F)cc3)c2-c2ccc3nc(NC(=O)c4ccnc(F)c4)cn3n2)CC1 [Compound 11]
26 | 2.1 | 0.3 | O=C(Nc1cn2nc(-c3c(-c4ccc(F)cc4)nc4n3CCC4)ccc2n1)c1ccncc1 [Compound 438, N-(6-(2-(4-Fluorophenyl)-6,7-dihydro-5H-pyrrolo[1,2-a]imidazol-3-yl)imidazo[1,2-b]pyridazin-2-yl)isonicotinamide]
27 | 8.64 | 0.915 | Cc1nc(-c2cccnc2)sc1C(=O)Nc1cn2nc(-c3c(-c4ccc(F)cc4)ncn3C3CN(C)C3)ccc2n1 [Compound 154, N-(6-(4-(4-fluorophenyl)-1-(1-methylazetidin-3-yl)-1H-imidazol-5-yl)imidazo[1,2-b]pyridazin-2-yl)-4-methyl-2-(pyridin-3-yl)thiazole-5-carboxamide]
28 | 17.2 | 1.61 | O=C(Nc1cn2nc(-c3c(-c4ccc(F)cc4)nc4ccccn34)ccc2n1)c1ccnc2[nH]cnc12 [Compound 213, N-(6-(2-(4-fluorophenyl)imidazo[1,2-a]pyridin-3-yl)imidazo[1,2-b]pyridazin-2-yl)-3H-imidazo[4,5-b] pyridine-7-carboxamide]
